What was measured:
[1] = molecular target: jack bean urease (Canavalia ensiformis, UniProt P07374); experiment: biochemical
Experimental: Urease is an enzyme (jack bean urease) that catalyzes the hydrolysis of urea into carbon dioxide and ammonia. The production of ammonia was measured by the indophenol method and used to determine the urease inhibitory activity[57],[58]. The percentage remaining activity was calculated from the formula % Remaining Activity = [(ODtest)/(ODcontrol) × 100]. Thiourea was used as a standard inhibitor. To calculate IC50 values, different concentrations of synthesized compounds and standards were assayed at the same reaction conditions.

Chain of jack bean urease (P07374 whole entry, looked up): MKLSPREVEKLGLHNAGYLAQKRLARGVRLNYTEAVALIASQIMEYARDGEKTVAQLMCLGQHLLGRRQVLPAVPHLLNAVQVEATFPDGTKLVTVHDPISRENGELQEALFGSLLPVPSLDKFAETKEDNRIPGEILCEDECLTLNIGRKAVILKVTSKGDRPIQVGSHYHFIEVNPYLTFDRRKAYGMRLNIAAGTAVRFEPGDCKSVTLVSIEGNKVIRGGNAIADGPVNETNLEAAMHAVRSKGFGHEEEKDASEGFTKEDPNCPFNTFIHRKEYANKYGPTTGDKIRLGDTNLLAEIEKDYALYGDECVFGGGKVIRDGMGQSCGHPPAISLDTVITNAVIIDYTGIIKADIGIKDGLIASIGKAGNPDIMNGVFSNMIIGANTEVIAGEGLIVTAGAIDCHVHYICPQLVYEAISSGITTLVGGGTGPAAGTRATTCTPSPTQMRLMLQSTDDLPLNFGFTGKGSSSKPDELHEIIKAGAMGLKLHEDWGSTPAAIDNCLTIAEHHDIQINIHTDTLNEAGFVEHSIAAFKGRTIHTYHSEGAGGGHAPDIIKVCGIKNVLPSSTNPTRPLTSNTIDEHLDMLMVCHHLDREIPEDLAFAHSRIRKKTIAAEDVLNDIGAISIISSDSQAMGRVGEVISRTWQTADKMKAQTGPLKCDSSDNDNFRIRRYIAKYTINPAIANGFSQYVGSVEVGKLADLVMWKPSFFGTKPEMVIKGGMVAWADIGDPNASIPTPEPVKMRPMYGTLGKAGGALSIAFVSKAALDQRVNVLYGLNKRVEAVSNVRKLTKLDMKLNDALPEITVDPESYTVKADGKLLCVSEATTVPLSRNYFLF

## O=[N+]([O-])c1ccc(S(=O)(=O)Nc2nnc(-c3ccc(C(c4c[nH]c5ccc(Br)cc45)c4c[nH]c5ccc(Br)cc45)cc3)s2)cc1 [Compound 2, N-(5-(4-(bis(5-bromo-1H-indol-3-yl)methyl)phenyl)-1,3,4-thiadiazol-2-yl)-4-nitrobenzenesulfonamide]
other
  melting point: 312 to 313 °C
[1]
  IC50: 1.8 ± 0.01 µM

## Cc1cccc(S(=O)(=O)Nc2nnc(-c3ccc(C(c4c[nH]c5ccc(Br)cc45)c4c[nH]c5ccc(Br)cc45)cc3)s2)c1 [Compound 17, N-(5-(4-(bis(5-bromo-1H-indol-3-yl)methyl)phenyl)-1,3,4-thiadiazol-2-yl)-3-methylbenzenesulfonamide]
other
  melting point: 289 to 290 °C
[1]
  IC50: 28.6 ± 1.2 µM

## O=S(=O)(Nc1nnc(-c2ccc(C(c3c[nH]c4ccc(Br)cc34)c3c[nH]c4ccc(Br)cc34)cc2)s1)c1ccccc1 [Compound 1, N-(5-(4-(bis(5-bromo-1H-indol-3-yl)methyl)phenyl)-1,3,4-thiadiazol-2-yl)benzenesulfonamide]
other
  melting point: 301 to 302 °C
[1]
  IC50: 13.2 ± 0.3 µM

## O=S(=O)(Nc1nnc(-c2ccc(C(c3c[nH]c4ccc(Br)cc34)c3c[nH]c4ccc(Br)cc34)cc2)s1)c1ccc(Cl)cc1Cl [Compound 7, N-(5-(4-(bis(5-bromo-1H-indol-3-yl)methyl)phenyl)-1,3,4-thiadiazol-2-yl)-2,4-dichlorobenzenesulfonamide]
[1]
  IC50: 2.3 ± 0.1 µM

## COc1ccc(O)c(S(=O)(=O)Nc2nnc(-c3ccc(C(c4c[nH]c5ccc(Br)cc45)c4c[nH]c5ccc(Br)cc45)cc3)s2)c1 [Compound 4, N-(5-(4-(bis(5-bromo-1H-indol-3-yl)methyl)phenyl)-1,3,4-thiadiazol-2-yl)-2-hydroxy-5-methoxybenzenesulfonamide]
[1]
  IC50: 2.2 ± 0.1 µM

## O=S(=O)(Nc1nnc(-c2ccc(C(c3c[nH]c4ccc(Br)cc34)c3c[nH]c4ccc(Br)cc34)cc2)s1)c1cc(Cl)c(Cl)cc1Cl [Compound 6, N-(5-(4-(bis(5-bromo-1H-indol-3-yl)methyl)phenyl)-1,3,4-thiadiazol-2-yl)-2,4,5-trichlorobenzenesulfonamide]
other
  melting point: 299 to 300 °C
[1]
  IC50: 0.7 ± 0.01 µM

## O=[N+]([O-])c1ccc(S(=O)(=O)Nc2nnc(-c3ccc(C(c4c[nH]c5ccc(Br)cc45)c4c[nH]c5ccc(Br)cc45)cc3)s2)c([N+](=O)[O-])c1 [Compound 8, N-(5-(4-(bis(5-bromo-1H-indol-3-yl)methyl)phenyl)-1,3,4-thiadiazol-2-yl)-2,4-dinitrobenzenesulfonamide]
[1]
  IC50: 0.5 ± 0.01 µM

## COc1ccc(Br)c(S(=O)(=O)Nc2nnc(-c3ccc(C(c4c[nH]c5ccc(Br)cc45)c4c[nH]c5ccc(Br)cc45)cc3)s2)c1 [Compound 14, N-(5-(4-(bis(5-bromo-1H-indol-3-yl)methyl)phenyl)-1,3,4-thiadiazol-2-yl)-2-bromo-5-methoxybenzenesulfonamide]
other
  melting point: 309 to 310 °C
[1]
  IC50: 19.8 ± 0.8 µM

## COc1ccc(Cl)cc1S(=O)(=O)Nc1nnc(-c2ccc(C(c3c[nH]c4ccc(Br)cc34)c3c[nH]c4ccc(Br)cc34)cc2)s1 [Compound 5, N-(5-(4-(bis(5-bromo-1H-indol-3-yl)methyl)phenyl)-1,3,4-thiadiazol-2-yl)-5-chloro-2-methoxybenzenesulfonamide]
other
  melting point: 315 to 316 °C
[1]
  IC50: 7.3 ± 0.1 µM

## O=S(=O)(Nc1nnc(-c2ccc(C(c3c[nH]c4ccc(Br)cc34)c3c[nH]c4ccc(Br)cc34)cc2)s1)c1ccc2ccccc2c1 [Compound 11, N-(5-(4-(bis(5-bromo-1H-indol-3-yl)methyl)phenyl)-1,3,4-thiadiazol-2-yl)naphthalene-2-sulfonamide]
other
  melting point: 313 to 314 °C
[1]
  IC50: 33.2 ± 1.2 µM

## O=[N+]([O-])c1ccc(S(=O)(=O)Nc2nnc(-c3ccc(C(c4c[nH]c5ccc(Br)cc45)c4c[nH]c5ccc(Br)cc45)cc3)s2)cc1Cl [Compound 9, N-(5-(4-(bis(5-bromo-1H-indol-3-yl)methyl)phenyl)-1,3,4-thiadiazol-2-yl)-3-chloro-4-nitrobenzenesulfonamide]
other
  melting point: 318 to 319 °C
[1]
  IC50: 1.1 ± 0.01 µM

## Cc1ccc([N+](=O)[O-])c(S(=O)(=O)Nc2nnc(-c3ccc(C(c4c[nH]c5ccc(Br)cc45)c4c[nH]c5ccc(Br)cc45)cc3)s2)c1 [Compound 13, N-(5-(4-(bis(5-bromo-1H-indol-3-yl)methyl)phenyl)-1,3,4-thiadiazol-2-yl)-5 methyl-2-nitrobenzenesulfonamide]
other
  melting point: 312 to 313 °C
[1]
  IC50: 5.1 ± 0.1 µM

## Cc1ccc(S(=O)(=O)Nc2nnc(-c3ccc(C(c4c[nH]c5ccc(Br)cc45)c4c[nH]c5ccc(Br)cc45)cc3)s2)cc1 [Compound 18, N-(5-(4-(bis(5-bromo-1H-indol-3-yl)methyl)phenyl)-1,3,4-thiadiazol-2-yl)-4-methylbenzenesulfonamide]
other
  melting point: 285 to 286 °C
[1]
  IC50: 20.4 ± 1.2 µM

## Cc1ccc(Cl)c(S(=O)(=O)Nc2nnc(-c3ccc(C(c4c[nH]c5ccc(Br)cc45)c4c[nH]c5ccc(Br)cc45)cc3)s2)c1 [Compound 12, N-(5-(4-(bis(5-bromo-1H-indol-3-yl)methyl)phenyl)-1,3,4-thiadiazol-2-yl)-2-chloro-5-methylbenzenesulfonamide]
other
  melting point: 301 to 302 °C
[1]
  IC50: 8.5 ± 0.3 µM

## O=S(=O)(Nc1nnc(-c2ccc(C(c3c[nH]c4ccc(Br)cc34)c3c[nH]c4ccc(Br)cc34)cc2)s1)c1ccc(Cl)c(Cl)c1 [Compound 10, N-(5-(4-(bis(5-bromo-1H-indol-3-yl)methyl)phenyl)-1,3,4-thiadiazol-2-yl)-3,4-dichlorobenzenesulfonamide]
other
  melting point: 302 to 303 °C
[1]
  IC50: 1.6 ± 0.01 µM

## COc1ccc([N+](=O)[O-])c(S(=O)(=O)Nc2nnc(-c3ccc(C(c4c[nH]c5ccc(Br)cc45)c4c[nH]c5ccc(Br)cc45)cc3)s2)c1 [Compound 15, N-(5-(4-(bis(5-bromo-1H-indol-3-yl)methyl)phenyl)-1,3,4-thiadiazol-2-yl)-5-methoxy-2-nitrobenzenesulfonamide]
other
  melting point: 308 to 309 °C
[1]
  IC50: 3.9 ± 0.1 µM

## Cc1ccccc1S(=O)(=O)Nc1nnc(-c2ccc(C(c3c[nH]c4ccc(Br)cc34)c3c[nH]c4ccc(Br)cc34)cc2)s1 [Compound 16, N-(5-(4-(bis(5-bromo-1H-indol-3-yl)methyl)phenyl)-1,3,4-thiadiazol-2-yl)-2-methylbenzenesulfonamide]
other
  melting point: 291 to 292 °C
[1]
  IC50: 23.8 ± 1 µM

## O=[N+]([O-])c1ccccc1S(=O)(=O)Nc1nnc(-c2ccc(C(c3c[nH]c4ccc(Br)cc34)c3c[nH]c4ccc(Br)cc34)cc2)s1 [Compound 3, N-(5-(4-(bis(5-bromo-1H-indol-3-yl)methyl)phenyl)-1,3,4-thiadiazol-2-yl)-2-nitrobenzenesulfonamide]
other
  melting point: 314 to 315 °C
[1]
  IC50: 1.1 ± 0.01 µM

From paper PMC7224224, “Synthesis of diindolylmethane (DIM) bearing thiadiazole derivatives as a potent urease inhibitor” (Scientific Reports, 2020)
